The values below are quoted from earlier work in patent US9309575B2, “Mutant strains of Escherichia coli, a method of testing potential antibacterial agents using said strains as well as a testing kit” (Instytut Biologii Doswiadczalnej IM. M. Nenckiego Pan, priority 2010, dated 2016).

In this data set the test system is gram-negative bacteria. To be noted: at concentrations of 1-10 μg/ml.

With polymyxin B nonapeptide [PMBN], the biocidal properties entry is “does not exhibit biocidal properties”.
